Results reported in PMC3582657 (Clinical pharmacology and therapeutics, 2008).
“And” between values parts separate entries of the source, which are not always exact repeats. Equal entries are not always repeated. Where two headings read alike, the source gives them in different places.

Key:
[1] = background statement, no reference given; cited from earlier work
[2] = mean±SD; for CL renal: human, urine, CLr (renal clearance)
[3] = format: in vivo, human
blood glucose [4] = experiment: Blood glucose level after glyburide dosing; format: in vivo, human; conditions: rifampin IV (Treatment C) phase in comparison to other treatment groups; repeated ANOVA p<0.0001
blood glucose [5] = conditions: concomitant rifampin versus control; cited from earlier work
[6] = Safety assessment in the clinical study; format: in vivo, human
[7] = multiple doses of rifampin; cited from earlier work
P-glycoprotein (P-gp) = conditions: cited from earlier work
[8] = Treatment A: 1.25 mg oral glyburide alone (control), mean±SD, n=9
[9] = Treatment A: 1.25 mg oral glyburide alone (control), median and range
[10] = Treatment A: 1.25 mg oral glyburide alone (control), plasma, mean±SD, n=9
[11] = Treatment B (ciprofloxacin IV phase) vs Treatment A
[12] = Treatment B: 200 mg iv ciprofloxacin just before 1.25 mg oral glyburide, median and range
[13] = Treatment C (rifampin IV phase) vs Treatment A
[14] = Treatment C: single 600 mg iv rifampin then 1.25 mg oral glyburide, mean±SD, n=9
[15] = Treatment D (rifampin IV after oral induction) compared with Treatment E
[16] = Treatment D (rifampin IV after oral induction) compared with control Treatment A
[17] = Treatment D (rifampin IV/PO phase) vs Treatment A
[18] = Treatment D: 600 mg oral rifampin daily for 6 days, next day 600 mg iv rifampin then 1.25 mg oral glyburide, median and range
[19] = Treatment E (rifampin PO phase) vs Treatment A
[20] = iv rifampin effect under induced conditions (Treatment D / Treatment E)
[21] = iv rifampin effect under noninduced conditions (Treatment C / Treatment A)
[22] = single IV infusion of rifampin (Treatment C) compared with control Treatment A
[23] = single IV infusion of rifampin (Treatment C) vs control Treatment A

COc1ccc(Cl)cc1C(=O)NCCc1ccc(S(=O)(=O)NC(=O)N[C@@H]2CCC[C@H](O)C2)cc1 (relative stereo) [3-cis-hydroxyglyburide]
hypoglycemic activity (potency) retained relative to the parent compound [1]: 50%

COc1ccc(Cl)cc1C(=O)NCCc1ccc(S(=O)(=O)NC(=O)NC2CCC(O)CC2)cc1 (stereo not drawn) [4-hydroxyglyburide, 4-trans-hydroxyglyburide]
0–12h accumulated urine excretion ([2]; Treatment A, glyburide control): 358 ± 107 µg
CLr (renal clearance) ([2]; Treatment A, glyburide control): 2200 ± 619 mL/day/kg
0–12h accumulated urine excretion ([2]; Treatment B, ciprofloxacin IV): 325 ± 77 µg
CLr (renal clearance) ([2]; Treatment B, ciprofloxacin IV): 2220 ± 564 mL/day/kg
0–12h accumulated urine excretion ([2]; Treatment C, rifampin IV): 457 ± 72 µg
CLr (renal clearance) ([2]; Treatment C, rifampin IV): 2120 ± 629 mL/day/kg
0–12h accumulated urine excretion ([2]; Treatment D, rifampin IV/PO): 208±56 ^** ug
CLr (renal clearance) ([2]; Treatment D, rifampin IV/PO): 2100 ± 401 mL/day/kg
0–12h accumulated urine excretion ([2]; Treatment E, rifampin PO): 135 ± 40 µg
CLr (renal clearance) ([2]; Treatment E, rifampin PO): 2200 ± 665 mL/day/kg
AUCm/AUCp (AUC ratio of 4-hydroxyglyburide to glyburide) ([3]; Treatment A, glyburide control, mean±SD): 3.67±1.03%
MRT [3, 8]: 1.6 ± 0.9 h
t1/2 [3, 8]: 4.2 ± 1.7 h
Tmax [3, 9]: 4(3–6) h
AUC0-∞ [3, 10]: 0.066 ± 0.0232 µg·h/mL
Cmax [3, 10]: 0.00967 ± 0.00251 µg/mL
AUC0-∞, mean % of control [3, 11]: 101 % of control
Cmax, mean % of control [3, 11]: 99 % of control
MRT, mean % of control [3, 11]: 89 % of control
t1/2, mean % of control [3, 11]: 115 % of control
AUCm/AUCp (AUC ratio of 4-hydroxyglyburide to glyburide) ([3]; Treatment B, ciprofloxacin IV, mean±SD): 3.34±0.37%
Tmax [3, 12]: 4(3–8) h
AUC0-∞, mean % of control [3, 13]: 145 % of control
Cmax, mean % of control [3, 13]: 134 % of control
MRT, mean % of control [3, 13]: 121 % of control
t1/2, mean % of control [3, 13]: 102 % of control
AUCm/AUCp (AUC ratio of 4-hydroxyglyburide to glyburide) ([3]; Treatment C, rifampin IV, mean±SD): 2.36±0.61 %
MRT [3, 14]: 1.5 ± 0.8 h
t1/2 [3, 14]: 3.8 ± 0.7 h
Tmax ([3]; Treatment C: single 600 mg iv rifampin then 1.25 mg oral glyburide, median and range): 4(3–6) h
increase in AUC [3, 15]: 67±44%
increase in Cmax [3, 15]: 49±44%
decrease in Cmax [3, 16]: not significant
AUC0-∞, mean % of control [3, 17]: 54 % of control
Cmax, mean % of control [3, 17]: 81 % of control
MRT, mean % of control [3, 17]: 77 % of control
decrease in mean residence time (MRT) ([3]; Treatment D versus control Treatment A): 23%
AUCm/AUCp (AUC ratio of 4-hydroxyglyburide to glyburide) ([3]; Treatment D, rifampin IV/PO, mean±SD): 2.52±0.35 %
Tmax [3, 18]: 4(3–6) h
AUC0-∞, mean % of control [3, 19]: 33 % of control
Cmax, mean % of control [3, 19]: 56 % of control
MRT, mean % of control [3, 19]: 41 % of control
AUCm/AUCp (AUC ratio of 4-hydroxyglyburide to glyburide) ([3]; Treatment E, rifampin PO, mean±SD): 3.36±0.60%
AUC0-∞, ratio D to E [3, 20]: 1.7±0.4
Cmax, ratio D to E [3, 20]: 1.5±0.4
MRT, ratio D to E [3, 20]: 1.3±1.3
AUC0-∞, ratio C to A [3, 21]: 1.5±0.4
Cmax, ratio C to A [3, 21]: 1.3±0.5
MRT, ratio C to A [3, 21]: 1.2±0.9
increase in AUC0-∞ [3, 22]: 45 ± 37%
increase in Cmax [3, 22]: 34 ± 47%
hypoglycemic activity (potency) retained relative to the parent compound [1]: 75%

COc1ccc(Cl)cc1C(=O)NCCc1ccc(S(=O)(=O)NC(=O)NC2CCCCC2)cc1 [glyburide]
0–12h accumulated urine excretion ([2]; Treatment A, glyburide control): 1.8 ± 1.1 µg
0–12h accumulated urine excretion ([2]; Treatment B, ciprofloxacin IV): 1.7 ± 0.6 µg
0–12h accumulated urine excretion ([2]; Treatment C, rifampin IV): 3.9 ± 1.3 µg
0–12h accumulated urine excretion ([2]; Treatment D, rifampin IV/PO): 1.4 ± 0.5 µg
0–12h accumulated urine excretion ([2]; Treatment E, rifampin PO): 1.3 ± 0.7 µg
CL renal ([2]; iv, Treatment B, ciprofloxacin IV): 0.36 mL/day/kg
CL renal ([2]; iv, Treatment C, rifampin IV): 0.384 mL/day/kg
CL renal ([2]; oral, 1.25 mg, Treatment A, glyburide control): 0.408 mL/day/kg
CL renal ([2]; oral, Treatment D, rifampin IV/PO): 0.384 mL/day/kg
CL renal ([2]; po, 1.25 mg, Treatment E, rifampin PO): 0.744 mL/day/kg
decremental AUC0–12 of blood glucose (blood glucose [4]): statistically significant decrease
change in blood glucose decremental AUC(0–7) (net area below baseline) (blood glucose [5]): −44%
change in maximum decrease in the blood glucose concentration (blood glucose [5]): −36%
serious adverse events ([6]; during or after the study, all treatments): No serious adverse events
CL/F [3, 8]: 10.1±3.1 mI/h/kg
Vss/F [3, 8]: 49±33 mI/kg
Tmax [3, 9]: 3(2–4) h
AUC0-∞, mean % of control [3, 11]: 107 % of control
Cmax, mean % of control [3, 11]: 95 % of control
MRT, mean % of control [3, 11]: 119 % of control
t1/2, mean % of control [3, 11]: 108 % of control
Tmax [3, 12]: 3(2–6) h
AUC0-∞, mean % of control [3, 13]: 225 % of control
Cmax, mean % of control [3, 13]: 181 % of control
MRT, mean % of control [3, 13]: 84 % of control
t1/2, mean % of control [3, 13]: 84 % of control
CL/F [3, 14]: 4.59±1.20 mI/h/kg
Vss/F [3, 14]: 16±7 mI/kg
increase in AUC [3, 15]: 120±56%
increase in Cmax [3, 15]: 92±76%
decrease in AUC0-∞ [3, 16]: 22±21% and 22%
decrease in Cmax [3, 16]: 9±0.3% and 8%
AUC0-∞, mean % of control [3, 17]: 78 % of control
Cmax, mean % of control [3, 17]: 91 % of control
MRT, mean % of control [3, 17]: 61 % of control
Tmax [3, 18]: 3(2–4) h
AUC0-∞, mean % of control [3, 19]: 37 % of control
Cmax, mean % of control [3, 19]: 52 % of control
MRT, mean % of control [3, 19]: 53 % of control
change in any pharmacokinetic parameter ([3]; ciprofloxacin co-administered with glyburide (Treatment B) vs Treatment A): No significant changes in any parameter
Tmax ([3]; human, plasma, oral): 3 h
Tmax ([3]; human, plasma, po, 1.25 mg): 3 h
AUC(0-inf) ([3]; human, plasma, po, 1.25 mg, AUC0-∞, Treatment A: 1.25 mg oral glyburide alone (control), plasma, mean±SD, n=9): 1.89 ± 0.682 µg·h/mL
Cmax ([3]; human, plasma, po, 1.25 mg, Cmax, Treatment A: 1.25 mg oral glyburide alone (control), plasma, mean±SD, n=9): 0.384 ± 0.135 µg/mL
MRT ([3]; human, plasma, po, 1.25 mg, MRT, Treatment A: 1.25 mg oral glyburide alone (control), mean±SD, n=9): 4.5 ± 2 h
half-life ([3]; human, plasma, po, 1.25 mg, t1/2, Treatment A: 1.25 mg oral glyburide alone (control), mean±SD, n=9): 4.7 ± 1.3 h
increase in AUC0-∞ [3, 22]: 125± 51.5% and 125%
increase in Cmax [3, 22]: 81 ± 28% and 81%
change in apparent terminal half-life (t1/2) ([3]; single IV infusion of rifampin (Treatment C) vs control): did not change
decrease in oral clearance (CL/F) [3, 23]: 53 ± 13%
decrease in oral steady-state volume of distribution (Vss/F) [3, 23]: 60 ± 29%
decrease in AUC of glyburide by rifampin [7]: 39%
decrease in maximal concentration (Cmax) of glyburide by rifampin [7]: 22%

CO[C@H]1/C=C/O[C@@]2(C)Oc3c(C)c(O)c4c(O)c(c(/C=N/N5CCN(C)CC5)c(O)c4c3C2=O)NC(=O)/C(C)=C\C=C\[C@H](C)[C@H](O)[C@@H](C)[C@@H](O)[C@@H](C)[C@H](OC(C)=O)[C@@H]1C [rifampin]
inhibition of Pgp (P-glycoprotein (P-gp)): does not inhibit Pgp
adverse event leading to withdrawal ([6]; one subject, after visit 3): allergy to rifampin
